What all share (test): NCI-60 cell line screen, 48 h
Assay [1] concerns SN12C renal.
The test system of assay [2] is PC-3 prostate.
The test system of assay [3] is SNB-19 CNS.
Assay [4] concerns MDA-MB-435.
The test system of assay [5] is COLO 205 colon.
For assay [6], the system named is HOP-62 NSCLC.
Assay [7] deals with SW-620 colon.
Assay [8] relates to SK-OV-3 ovarian.
Assay [9] relates to CCRF-CEM leukemia.
The test system of assay [10] is NCI-H226 lung.

Molecules are shown by their SMILES.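 These data come from cells grown in 96-well plates and exposed to compound for 48 hours at five concentrations. GI50: concentration for 50% inhibition of growth. At the TGI there is no net growth.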

`CCc1ccc(Oc2c(-c3ccc(OCc4ccc(Cl)cc4)cc3O)n[nH]c2C(F)(F)F)cc1`: the GI50 in assay [1] is 1.72 µM; in [2], 1.88 µM; in assay [3], 1.98 µM; in [4], 1.8 µM; in assay [5], 1.71 µM; in [6] it was 1.87 µM. Further, the GI50 in [7] is 2.05 µM; in assay [8], 2.43 µM; in assay [9], 2.92 µM; in [10], 2.11 µM. Besides, the TGI in assay [1] worked out at 3.35 µM; in assay [2] it was 3.86 µM; in [3] it was 4.21 µM; in [4], 3.49 µM; in assay [5], 3.27 µM; in assay [6] it was 3.48 µM. The TGI in assay [7] is 4.45 µM; in assay [8], 7.01 µM; in assay [9] it was 7.22 µM; in [10], 5.26 µM.

`CCOC(=O)C1=CCCC[C@H]1S(=O)(=O)Nc1ccc(F)cc1Cl`: the GI50 in assay [1] is 24.5 µM; in assay [2] it was 34 µM; in [3] it was 29.4 µM; in assay [4] it was 21.1 µM; in [5], 38.2 µM; in assay [6], 25.5 µM. The GI50 in assay [7] is 30 µM; in assay [8], 47.6 µM; in assay [9] it was 21.4 µM; in assay [10] it was 26.7 µM. Moreover, the TGI in assay [1] is 94.5 µM; in assay [2] it was greater than 100 µM; in [3], greater than 100 µM; in assay [4], 69.9 µM; in [5] it was greater than 100 µM; in assay [6] it was greater than 100 µM. Besides, the TGI in assay [7] was greater than 100 µM; in assay [8], greater than 100 µM; in [9], 84.9 µM; in assay [10], greater than 100 µM.

As for `CCc1nc(N)nc(N)c1-c1ccc(Cl)c([N+](=O)[O-])c1`, the TGI was greater than 100 µM in assay [1]; greater than 100 µM in [2]; greater than 100 µM in [3]; greater than 100 µM in assay [4]; 55.5 µM in assay [5]; greater than 95.5 µM in assay [6]. The TGI was greater than 100 µM in assay [7], greater than 100 µM in assay [8], greater than 32.7 µM in assay [9] and greater than 100 µM in assay [10].

`O=C(CN(/C=C/C(=O)C(F)(F)F)c1ccc(Cl)cc1)c1ccc(Cl)cc1`: the GI50 in [1] was 11.9 µM; in assay [2], 12.9 µM; in assay [3], 11 µM; in assay [4], 7.83 µM; in assay [5], 13.4 µM; in assay [6], 32.8 µM. Also, the GI50 in assay [7] was 10.2 µM; in assay [8], 17.9 µM; in assay [9] it was 5.11 µM; in assay [10], 14.8 µM. Moreover, the TGI in assay [1] is 24.2 µM; in assay [2], 26.5 µM; in [3] it was 31.2 µM; in assay [4], 29 µM; in assay [5], 31.8 µM; in assay [6], greater than 100 µM. Besides, the TGI in assay [7] worked out at 23.7 µM; in assay [8], 33.5 µM; in assay [9], 24.4 µM; in assay [10], 29.4 µM.

Turning to `Cc1c(-c2cnccn2)ssc1=S`, the TGI was greater than 100 µM in assay [1]; greater than 100 µM in assay [2]; greater than 100 µM in assay [3]; greater than 100 µM in assay [4]; greater than 100 µM in [5]; 92 µM in [6]. In addition, the TGI in assay [7] was greater than 100 µM; in assay [8], 93 µM; in assay [9] it was greater than 77.4 µM; in assay [10] it was greater than 100 µM.

Regarding `O=C(O)CCNCC(=O)O`, the TGI in assay [1], in assay [2], in assay [3], in assay [4], in assay [5] and in assay [6] was greater than 100 µM in each case. Besides, the TGI in [7], in assay [8], in assay [9] and in assay [10] was greater than 100 µM in each case.

Take `COc1cc2c(cc1OC(C)C)[C@H](c1ccc(Cl)cc1)N(c1ccc(N(C)CC3CCC(N4CCN(C)C(=O)C4)CC3)cc1)C(=O)C2` (stereo not given in full): the GI50 is 2.95 µM in [1]; 1.98 µM in assay [2]; 4.07 µM in assay [3]; 2.47 µM in [4]; 2.59 µM in assay [5]; 4.19 µM in assay [6]. Further, the GI50 in assay [7] was 4.6 µM; in assay [8], 4.05 µM; in [9], 2.61 µM; in assay [10], 0.311 µM. In addition, the TGI in assay [1] is 9.15 µM; in [2] it was 5.51 µM; in [3] it was 14.7 µM; in assay [4], 6.93 µM; in assay [5], 7.36 µM; in [6] it was 9.64 µM. In addition, the TGI in assay [7] stood at 10 µM; in assay [8], 8.86 µM; in [9], 7.48 µM; in assay [10], 1.7 µM.

`Nc1nc(/C=C\c2ccc([N+](=O)[O-])s2)nc(N2CCN(c3ccccc3)CC2)n1`: the GI50 in assay [1] is 14.3 µM; in assay [2] it was 21.9 µM; in [3] it was 30.5 µM; in assay [4], 19.2 µM; in assay [5] it was 15.4 µM; in [6], 29 µM. Also, the GI50 in assay [7] is 6.3 µM; in [8] it was 30.7 µM; in assay [9], 29.3 µM; in assay [10], 15.2 µM. For the same compound, the TGI in assay [1] is 34.5 µM; in [2], 63.7 µM; in assay [3], 77 µM; in assay [4], 43.6 µM; in [5] it was 32.1 µM; in assay [6] it was 64.3 µM. For the same compound, the TGI in assay [7] was 27.9 µM; in assay [8] it was 62.5 µM; in assay [9], 79.1 µM; in assay [10], 36.4 µM.

Consider `O=C1Nc2c(ccc(Cl)c2Cl)/C1=C/c1cc(Br)c(O)c(Br)c1`, for which the GI50 in assay [1] was 10.7 µM; in assay [2], 5.23 µM; in assay [3], 4.6 µM; in [4] it was 2.02 µM; in assay [5], 5.05 µM; in [6] it was 11.9 µM. For the same compound, the GI50 in assay [7] is 4.67 µM; in assay [8] it was 4.88 µM; in [9] it was 3.95 µM; in [10], 11.5 µM. The TGI in assay [1] is greater than 100 µM; in assay [2], greater than 100 µM; in assay [3], greater than 63.3 µM; in [4], 5.82 µM; in assay [5], 27.4 µM; in [6], greater than 68 µM. The TGI in assay [7] is greater than 100 µM; in assay [8], 30.4 µM; in [9], greater than 65.4 µM; in assay [10], 60.4 µM.

`CNC(=O)c1c(C)oc2cc(Oc3ncnc4cc(OC)c(OC)cc34)ccc12`: the GI50 in [1], in assay [2], in [3], in assay [4], in [5] and in assay [6] was greater than 100 µM in each case. The GI50 in assay [7] is greater than 100 µM; in [8], greater than 100 µM; in assay [9] it was greater than 100 µM; in assay [10] it was 2.47 µM. The TGI in [1], in assay [2], in assay [3], in assay [4], in assay [5] and in [6] was greater than 100 µM throughout. In addition, the TGI in assay [7], in assay [8], in assay [9] and in assay [10] was greater than 100 µM throughout.

Consider `CN(Cc1ccccc1)Cn1ccnc1`, for which the TGI in assay [1] was greater than 100 µM; in assay [2], greater than 100 µM; in assay [3] it was greater than 100 µM; in assay [4], greater than 100 µM; in assay [5], greater than 86.7 µM; in [6] it was greater than 100 µM. The TGI in assay [7] is greater than 100 µM; in assay [8] it was greater than 100 µM; in assay [9], greater than 71.2 µM; in assay [10], greater than 100 µM.

As to `O=c1c2c(nc3n1CCS3)[nH]c1cc([N+](=O)[O-])ccc12`, the GI50 is greater than 100 µM in assay [1]; greater than 100 µM in [2]; greater than 100 µM in [3]; greater than 100 µM in assay [4]; 41.4 µM in [5]; greater than 100 µM in [6]. Further, the GI50 in assay [7], in assay [8], in assay [9] and in assay [10] was greater than 100 µM in each case. Further, the TGI in assay [1], in assay [2], in assay [3], in assay [4], in assay [5] and in assay [6] was greater than 100 µM in each case. In addition, the TGI in [7], in assay [8], in assay [9] and in assay [10] was greater than 100 µM each time.

`O=C(O)CSc1n[nH]c(=O)[nH]c1=O`: the TGI in [1], in [2], in assay [3], in assay [4], in [5] and in [6] was greater than 100 µM each time. The TGI in [7], in [8], in assay [9] and in [10] was greater than 100 µM in each case.

`CC1Cc2c(Cl)ncnc2N(C)c2ccc(Cl)cc21` (stereo not given): the GI50 was 0.411 µM in [1]; 0.386 µM in assay [2]; 0.636 µM in [3]; 0.329 µM in assay [4]; 0.19 µM in [5]; 0.339 µM in [6]. Further, the GI50 in assay [7] was 0.335 µM; in [8] it was 0.372 µM; in assay [9], 0.51 µM; in [10], 0.241 µM. The TGI in assay [1] was 19.3 µM; in assay [2], greater than 100 µM; in [3], greater than 100 µM; in assay [4] it was 1.85 µM; in [5], 0.369 µM; in assay [6], 11.1 µM. Besides, the TGI in assay [7] was 4.74 µM; in assay [8] it was 12.9 µM; in assay [9], greater than 100 µM; in [10] it was 0.602 µM.

Values taken from PubChem BioAssay (NCI).
